According to patent US8802597B2, “Herbicidal pyrimidines” (E I du Pont de Nemours and Company, priority 2003, dated 2014):

How the values were obtained:
Test in all cases: Test C pre/postemergence
Type in all cases: in vivo
[1] = tested on: lambsquarters (Chenopodium album); details: for Plant response rating, Lambsquarters: Preemergence
Method in brief: (§1)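 We sprayed seeded pots preemergence and 2–18 cm seedlings postemergence with test chemicals in a non-phytotoxic solvent mixture including surfactant. Greenhouse plants were visually compared with untreated controls at 12 to 14 days and scored 0 (no effect) to 100 (complete control).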

soybean (Glycine max) = details: for Plant response rating, Soybean: Preemergence, scale 0 to 100, 0 no effect, 100 complete control
Method in brief: as §1

[2] = tested on: giant foxtail (Setaria faberii); details: for Plant response rating, Foxtail, Giant: Preemergence
Method in brief: as §1

[3] = tested on: common ragweed (Ambrosia elatior); details: for Plant response rating, Ragweed: Preemergence, scale 0 to 100, 0 no effect, 100 complete control
Method in brief: as §1

[4] = tested on: Surinam grass (Brachiaria decumbens); details: for Plant response rating, Surinam Grass: Preemergence, scale 0 to 100, 0 no effect, 100 complete control
Method in brief: as §1

[5] = tested on: bermudagrass (Cynodon dactylon); details: for Plant response rating (scale of 0 to 100), Bermudagrass / Bermudagrass plant response rating: Postemergence; for Bermudagrass plant response rating: scale 0 to 100 (0 no effect, 100 complete control); for Plant response rating, Bermudagrass: Preemergence
Method in brief: as §1

[6] = tested on: eastern black nightshade (Solanum ptycanthum); details: Preemergence, scale 0 to 100, 0 no effect, 100 complete control
Method in brief: as §1

[7] = tested on: woolly cupgrass (Eriochloa villosa); details: for Plant response rating, Cupgrass, Woolly: Preemergence
Method in brief: as §1

[8] = tested on: morningglory (Ipomoea coccinea); details: for Plant response rating, Morningglory: Preemergence
Method in brief: as §1

[9] = tested on: goosegrass (Eleusine indica); details: for Plant response rating, Goosegrass: Preemergence
Method in brief: as §1

[10] = tested on: yellow nutsedge (Cyperus esculentus); details: for Plant response rating, Nutsedge, Yellow: Preemergence, scale 0 to 100, 0 no effect, 100 complete control
Method in brief: as §1

[11] = tested on: velvetleaf (Abutilon theophrasti); details: for Plant response rating, Velvetleaf: Preemergence, scale 0 to 100, 0 no effect, 100 complete control
Method in brief: as §1

[12] = Postemergence, 125 g ai/ha, scale 0 to 100 (0 no effect, 100 complete control)
[13] = 16 g ai/ha, scale 0 to 100, 0 no effect, 100 complete control
[14] = 31 g ai/ha, scale 0 to 100, 0 no effect, 100 complete control
[15] = 62 g ai/ha, scale 0 to 100, 0 no effect, 100 complete control

Nc1nc(-c2ccc(Cl)cc2)nc(C(=O)[O-])c1Cl.[Na+] [Compound 117]
Plant response rating (scale of 0 to 100), Lambsquarters ([1]; Postemergence, 16 g ai/ha): 95
Plant response rating (scale of 0 to 100), Lambsquarters ([1]; Postemergence, 31 g ai/ha): 95
Plant response rating (scale of 0 to 100), Lambsquarters ([1]; Postemergence, 62 g ai/ha): 95
Lambsquarters plant response rating [1, 12]: 95
Plant response rating, Lambsquarters [1, 13]: 20
Plant response rating, Lambsquarters [1, 14]: 100
Plant response rating, Lambsquarters [1, 15]: 100
Plant response rating, Lambsquarters ([1]; 125 g ai/ha, scale 0 to 100): 100
Plant response rating (scale of 0 to 100), Soybean (soybean (Glycine max); Postemergence, 16 g ai/ha): 100
Plant response rating (scale of 0 to 100), Soybean (soybean (Glycine max); Postemergence, 31 g ai/ha): 100
Plant response rating (scale of 0 to 100), Soybean (soybean (Glycine max); Postemergence, 62 g ai/ha): 100
Soybean plant response rating (soybean (Glycine max); [12]): 100
Plant response rating, Soybean (soybean (Glycine max); 16 g ai/ha): 85
Plant response rating, Soybean (soybean (Glycine max); 31 g ai/ha): 100
Plant response rating, Soybean (soybean (Glycine max); 62 g ai/ha): 100
Plant response rating (scale of 0 to 100), Foxtail, Giant ([2]; Postemergence, 16 g ai/ha): 50
Plant response rating (scale of 0 to 100), Foxtail, Giant ([2]; Postemergence, 31 g ai/ha): 55
Plant response rating (scale of 0 to 100), Foxtail, Giant ([2]; Postemergence, 62 g ai/ha): 70
Foxtail, Giant plant response rating [2, 12]: 80
Plant response rating, Foxtail, Giant [2, 13]: 0
Plant response rating, Foxtail, Giant [2, 14]: 0
Plant response rating, Foxtail, Giant [2, 15]: 5
Plant response rating, Foxtail, Giant ([2]; 125 g ai/ha, scale 0 to 100): 50
Plant response rating (scale of 0 to 100), Ragweed ([3]; Postemergence, 16 g ai/ha): 95
Plant response rating (scale of 0 to 100), Ragweed ([3]; Postemergence, 31 g ai/ha): 95
Plant response rating (scale of 0 to 100), Ragweed ([3]; Postemergence, 62 g ai/ha): 100
Ragweed plant response rating [3, 12]: 100
Plant response rating, Ragweed ([3]; 16 g ai/ha): 60
Plant response rating, Ragweed ([3]; 31 g ai/ha): 60
Plant response rating, Ragweed ([3]; 62 g ai/ha): 90
Plant response rating (scale of 0 to 100), Surinam Grass ([4]; Postemergence, 16 g ai/ha): 45
Plant response rating (scale of 0 to 100), Surinam Grass ([4]; Postemergence, 31 g ai/ha): 50
Plant response rating (scale of 0 to 100), Surinam Grass ([4]; Postemergence, 62 g ai/ha): 80
Surinam Grass plant response rating [4, 12]: 80
Plant response rating, Surinam Grass ([4]; 16 g ai/ha): 40
Plant response rating, Surinam Grass ([4]; 31 g ai/ha): 40
Plant response rating, Surinam Grass ([4]; 62 g ai/ha): 50
Plant response rating (scale of 0 to 100), Bermudagrass ([5]; 16 g ai/ha): 60
Plant response rating (scale of 0 to 100), Bermudagrass ([5]; 31 g ai/ha): 65
Bermudagrass plant response rating ([5]; 62 g ai/ha): 85
Bermudagrass plant response rating ([5]; 125 g ai/ha): 90
Plant response rating, Bermudagrass [5, 13]: 0
Plant response rating, Bermudagrass [5, 14]: 0
Plant response rating, Bermudagrass [5, 15]: 30
Plant response rating, Bermudagrass ([5]; 125 g ai/ha, scale 0 to 100): 65
Plant response rating, Nightshade ([6]; 16 g ai/ha): 0
Plant response rating, Nightshade ([6]; 31 g ai/ha): 5
Plant response rating, Nightshade ([6]; 62 g ai/ha): 40
Plant response rating (scale of 0 to 100), Cupgrass, Woolly ([7]; Postemergence, 16 g ai/ha): 60
Plant response rating (scale of 0 to 100), Cupgrass, Woolly ([7]; Postemergence, 31 g ai/ha): 80
Plant response rating (scale of 0 to 100), Cupgrass, Woolly ([7]; Postemergence, 62 g ai/ha): 80
Cupgrass, Woolly plant response rating [7, 12]: 85
Plant response rating, Cupgrass, Woolly [7, 13]: 0
Plant response rating, Cupgrass, Woolly [7, 14]: 0
Plant response rating, Cupgrass, Woolly [7, 15]: 15
Plant response rating, Cupgrass, Woolly ([7]; 125 g ai/ha, scale 0 to 100): 50
Plant response rating (scale of 0 to 100), Morningglory ([8]; Postemergence, 16 g ai/ha): 20
Plant response rating (scale of 0 to 100), Morningglory ([8]; Postemergence, 31 g ai/ha): 50
Plant response rating (scale of 0 to 100), Morningglory ([8]; Postemergence, 62 g ai/ha): 50
Morningglory plant response rating [8, 12]: 50
Plant response rating, Morningglory [8, 13]: 0
Plant response rating, Morningglory [8, 14]: 0
Plant response rating, Morningglory [8, 15]: 5
Plant response rating, Morningglory ([8]; 125 g ai/ha, scale 0 to 100): 50
Plant response rating (scale of 0 to 100), Goosegrass ([9]; Postemergence, 16 g ai/ha): 40
Plant response rating (scale of 0 to 100), Goosegrass ([9]; Postemergence, 31 g ai/ha): 40
Plant response rating (scale of 0 to 100), Goosegrass ([9]; Postemergence, 62 g ai/ha): 75
Goosegrass plant response rating [9, 12]: 80
Plant response rating, Goosegrass [9, 13]: 0
Plant response rating, Goosegrass [9, 14]: 0
Plant response rating, Goosegrass [9, 15]: 0
Plant response rating, Goosegrass ([9]; 125 g ai/ha, scale 0 to 100): 30
Plant response rating (scale of 0 to 100), Nutsedge, Yellow ([10]; Postemergence, 16 g ai/ha): 5
Plant response rating (scale of 0 to 100), Nutsedge, Yellow ([10]; Postemergence, 31 g ai/ha): 50
Plant response rating (scale of 0 to 100), Nutsedge, Yellow ([10]; Postemergence, 62 g ai/ha): 50
Nutsedge, Yellow plant response rating [10, 12]: 60
Plant response rating, Nutsedge, Yellow ([10]; 16 g ai/ha): 0
Plant response rating, Nutsedge, Yellow ([10]; 31 g ai/ha): 0
Plant response rating, Nutsedge, Yellow ([10]; 62 g ai/ha): 50
Plant response rating (scale of 0 to 100), Velvetleaf ([11]; Postemergence, 16 g ai/ha): 60
Plant response rating (scale of 0 to 100), Velvetleaf ([11]; Postemergence, 31 g ai/ha): 70
Plant response rating (scale of 0 to 100), Velvetleaf ([11]; Postemergence, 62 g ai/ha): 95
Velvetleaf plant response rating [11, 12]: 95
Plant response rating, Velvetleaf ([11]; 16 g ai/ha): 0
Plant response rating, Velvetleaf ([11]; 31 g ai/ha): 50
Plant response rating, Velvetleaf ([11]; 62 g ai/ha): 65
